US20230303539A1, “IMMUNOREGULATORY COMPOUND AND ANTITUMOR APPLICATION THEREOF” (SHANGHAITECH UNIVERSITY, priority 2020, published 2023)

Assays:
Assay type in all cases: cell-based
[1] = system: multiple myeloma cancer cells MM.1S; assay: Cell proliferation inhibition (cell viability, CCK-8) in MM.1S; conditions: Homo sapiens, MM1.S; MM.1S cells, 72 h treatment, CCK-8 cell viability
Text: (§1) The tested cell lines used were: Multiple myeloma cell line MM.1S, human Burkitt's lymphoma cell line Daudi, human acute promyelocytic leukemia cell line NB4, human mantle cell lymphoma cell line JEKO-1, human B-cell lymphoma cell line SU-DHL-4, human mantle cell lymphoma cell line Mino, human diffuse large B-cell lymphoma cell line TMD8, human B-cell lymphoma cell line DOHH2, PBMCs cell and human diffuse large B-cell lymphoma cell line WSU-DLCL2, which were purchased from ATCC (American type Culture Collection) or Cell Bank/Stem Cell Bank, Chinese Academy of Sciences. The medium was RPMI1640 supplemented with 10% FBS (fetal calf serum) and 1% Penicillin-Streptomycin. The cells used were identified as correct cells by STR cells, and were negative for mycoplasma through routine inspections.
(§2) IC50 values of the compounds of the present disclosure (including the compounds in Table 1 and compounds of examples 1-23) were measured using Cell Titer Blue, Cell Titer GLO, or WST reagent from Promega Company. Assay details are as follows: Cells were seeded in 100 μL RPMI1640 medium containing serum at a density of 15,000 cells/well. After 24 h, the inoculated cells were treated with diluted commercial inhibitor and the compounds of the present disclosure to be tested after serial dilution. After the cells were treated with the compounds of the present disclosure to be tested for 72 h, cell viability was determined after adding the cell viability detection kit listed above according to the reagent operating instructions. The negative control was DMSO, and the positive control was a commercial inhibitor, both of which were used to treat the cells through the same method as that of the compounds of the present disclosure. The growth inhibition of the compounds of the present disclosure on cells was plotted by Prism Graphpad software, and the IC50 values of the compounds of the present disclosure were calculated therefrom.
(§3) We tested the activities of the compounds of the present invention (including the compounds in Table 1 and Examples 1-23 compounds) in multiple myeloma cancer cells MM.1S cell and B lymphoma cells Daudi through a dose-dependent manner. The cells were treated with the compounds of the present invention at 10 different successively decreasing concentrations (starting at the highest concentration of […]; 5-fold serial dilutions) for 72 h, and then the cell viability determination was performed in accordance with CCK-8 reagent operating instructions.

B lymphoma cells Daudi = assay: Cell proliferation inhibition (cell viability, CCK-8) in Daudi; conditions: Homo sapiens, 72 h treatment, CCK-8 cell viability
Text: as §1, §2, §3

TNF-α = TNF-α inhibition in LPS-stimulated PBMC cells (ELISA); conditions: LPS 1 ng/ml, 18-20 h, FIG. 2
Method: PBMC cells were cultured at 37° C. in 5% CO2 atmosphere, and then seeded in 96-well plates at […]. […] Cells were incubated in medium with or without compounds for 1 h, then stimulated with lipopolysaccharide (LPS; 1 ng/ml), and continually cultured for 18-20 h. Then, the supernatant was collected, diluted with serum-free medium, and tested for TNF-α level by ELISA kit. IC50 was then calculated by Graphpad Prism 7.0. Down-regulation of TNF-α expression is an important way of anti-tumor effect of immunomodulators.

[2] = system: human diffuse large B-cell lymphoma cell line TMD8; assay: Cell proliferation inhibition (CCK-8) in TMD8; conditions: TMD8 cells, 72 h treatment, read-out: IC50 (half inhibitory concentration) in tumor cells, TMD8
Text: as §1, with “The cells used were identified as correct cells by STR cells, and were negative for mycoplasma through routine inspections.” left out
(§4) IC50 values of the compounds of the present disclosure (including the compounds in Table 1 and compounds of examples 1-23) were measured using Cell Titer Blue, Cell Titer GLO, or WST reagent from Promega Company. […] After the cells were treated with the compounds of the present disclosure to be tested for 72 h, cell viability was determined after adding the cell viability detection kit listed above according to the reagent operating instructions. […] The growth inhibition of the compounds of the present disclosure on cells was plotted by Prism Graphpad software, and the IC50 values of the compounds of the present disclosure were calculated therefrom. […]

[3] = system: human mantle cell lymphoma cell line Mino; assay: Cell proliferation inhibition (CCK-8) in Mino; conditions: MINO cells, 72 h treatment, read-out: IC50 (half inhibitory concentration) in tumor cells, MINO
Text: as §1, with “The cells used were identified as correct cells by STR cells, and were negative for mycoplasma through routine inspections.” left out
as §4

[4] = system: human diffuse large B-cell lymphoma cell line WSU-DLCL2; assay: Cell proliferation inhibition (CCK-8) in WSU-DLCL2; conditions: WSUDLCL2, WSU-DLCL2 cells, 72 h treatment, read-out: IC50 (half inhibitory concentration) in tumor cells, WSU-DLCL2
Text: as §1, with “The cells used were identified as correct cells by STR cells, and were negative for mycoplasma through routine inspections.” left out
as §4

[5] = system: human B-cell lymphoma cell line DOHH2; assay: Cell proliferation inhibition (CCK-8) in DOHH2; conditions: DOHH-2, DOHH2 cells, 72 h treatment, read-out: IC50 (half inhibitory concentration) in tumor cells, DOHH2
Text: as §1, with “The cells used were identified as correct cells by STR cells, and were negative for mycoplasma through routine inspections.” left out
as §4

Compound	IC50 [1] [nM]	IC50 (B lymphoma cells Daudi) [nM]	other results
Cc1nc2cccc(NCC3CCC(C(=O)NC45CC6CC(CC(C6)C4)C5)CC3)c2c(=O)n1C1CCC(=O)NC1=O (stereo not drawn) [SIAIS313068, N-((3s,5s,7s)-adamantan-1-yl)-4-(((3-(2,6-dioxopiperidin-3-yl)-2-methyl-4-oxo-3,4-dihydroquinazolin-5-yl)amino)methyl)cyclohexanecarboxamide]	83.7 ± 2.79	492 ± 33.2	–
Cc1nc2cccc(NCc3ccc(CNC45CC6CC(CC(C6)C4)C5)cc3)c2c(=O)n1C1CCC(=O)NC1=O [SIAIS264156, 3-(5-((4-(((1R,3R,5S)-adamantan-1-ylamino)methyl)benzyl)amino)-2-methyl-4-oxoquinazolin-3(4H)-yl)piperidine-2,6-dione]	9.64 ± 0.83	44.8 ± 19.6	–
Cc1nc2cccc(N)c2c(=O)n1C1CCC(=O)NC1=O (stereo not drawn) [CC-122, Avadomide, reference compound]	21.8 ± 4.3	158 ± 9.48	IC50 [2]: 492 nM; IC50 [3]: 55 nM; IC50 [4]: > 1000 nM; IC50 [5]: > 1000 nM; inhibition of the level of TNF-α (in words) (TNF-α): the level of TNF-α was inhibited in a dose-dependent manner
Cc1nc2cccc(NCc3ccccc3F)c2c(=O)n1C1CCC(=O)NC1=O (stereo not drawn) [SIAIS264123, 3-(5-((2-fluorobenzyl)amino)-2-methyl-4-oxoquinazolin-3(4H)-yl)piperidine-2,6-dione]	57.5 ± 11.5	322 ± 22.1	–
Cc1nc2cccc(NCc3ccc(CN4CCCCC4)cc3)c2c(=O)n1C1CCC(=O)NC1=O (stereo not drawn) [SIAIS313069, 3-(2-methyl-4-oxo-5-((4-(piperidin-1-ylmethyl)benzyl)amino)quinazolin-3(4H)-yl)piperidine-2,6-dione]	21.5 ± 5.84	129 ± 18.8	–
Cc1nc2cccc(NCc3ccc4c(c3)OCO4)c2c(=O)n1C1CCC(=O)NC1=O (stereo not drawn) [SIAIS264177, 3-(5-((benzo[d][1,3]dioxol-5-ylmethyl)amino)-2-methyl-4-oxoquinazolin-3(4H)-yl)piperidine-2,6-dione]	34.7 ± 5.29	222 ± 40.9	–
Cc1nc2cccc(NCCc3ccccc3)c2c(=O)n1C1CCC(=O)NC1=O (stereo not drawn) [SIAIS264103, 3-(2-methyl-4-oxo-5-(phenethylamino)quinazolin-3(4H)-yl)piperidine-2,6-dione]	87.3 ± 5.18	826 ± 37.3	–
Cc1nc2cccc(NCc3ccc(CNC4C5CC6CC(C5)CC4C6)cc3)c2c(=O)n1C1CCC(=O)NC1=O [SIAIS264172, 3-(5-((4-(((1R,2s,3S,5r)-adamantan-2-ylamino)methyl)benzyl)amino)-2-methyl-4-oxoquinazolin-3(4H)-yl)piperidine-2,6-dione]	2.52 ± 0.68	–	–
Cc1nc2cccc(NCc3ccc(CO)cc3)c2c(=O)n1C1CCC(=O)NC1=O (stereo not drawn) [SIAIS313055, 3-(5-((4-(hydroxymethyl)benzyl)amino)-2-methyl-4-oxoquinazolin-3(4H)-yl)piperidine-2,6-dione]	36.4 ± 6.74	166 ± 14.7	–
Cc1nc2cccc(NCc3ccc(CN4CCOCC4)cc3)c2c(=O)n1C1CCC(=O)NC1=O (stereo not drawn) [SIAIS264067, 3-(2-methyl-5-((4-(morpholinomethyl)benzyl)amino)-4-oxoquinazolin-3(4H)-yl)piperidine-2,6-dione]	8.59 ± 1.32	54.6 ± 7.35	inhibition of the level of TNF-α (in words) (TNF-α): better inhibitory activities than CC-122

More lines, main results first:

IC50 [1] [nM]	IC50 (B lymphoma cells Daudi) [nM]	Compound	other results
10.6 ± 1.95	58.7 ± 22.4	Cc1nc2cccc(NCc3ccc(CN4CCSCC4)cc3)c2c(=O)n1C1CCC(=O)NC1=O (stereo not drawn) [SIAIS313074, 3-(2-methyl-4-oxo-5-((4-(thiomorpholinomethyl)benzyl)amino)quinazolin-3(4H)-yl)piperidine-2,6-dione]	inhibition of the level of TNF-α (in words) (TNF-α): better inhibitory activities than CC-122
16.4 ± 2.82	131 ± 27.6	Cc1nc2cccc(NCc3ccc(CN4CC(C)CC(C)C4)cc3)c2c(=O)n1C1CCC(=O)NC1=O (stereo not drawn) [SIAIS313075, 3-(5-((4-((3,5-dimethylpiperidin-1-yl)methyl)benzyl)amino)-2-methyl-4-oxoquinazolin-3(4H)-yl)piperidine-2,6-dione]	–
5.61 ± 2.41	82.9 ± 25.9	Cc1nc2cccc(NCc3ccc(CNC45CC6CC(CC(C6)C4)C5)cc3F)c2c(=O)n1C1CCC(=O)NC1=O (stereo not drawn) [SIAIS355049, 3-(5-((4-((adamantan-1-ylamino)methyl)-2-fluorobenzyl)amino)-2-methyl-4-oxoquinazolin-3(4H)-yl)piperidine-2,6-dione]	–
22.1 ± 12	105 ± 19.9	Cc1nc2cccc(NCc3ccc(CN4CCCCCC4)cn3)c2c(=O)n1C1CCC(=O)NC1=O (stereo not drawn) [SIAIS355062, 3-(5-(((5-(azepan-1-ylmethyl)pyridin-2-yl)methyl)amino)-2-methyl-4-oxoquinazolin-3(4H)-yl)piperidine-2,6-dione]	–
37.7 ± 12.1	139 ± 22	Cc1nc2cccc(NCc3ccc(CNC45CC6CC(CC(C6)C4)C5)cn3)c2c(=O)n1C1CCC(=O)NC1=O (stereo not drawn) [SIAIS355068, 3-(5-(((5-(((adamantan-1-yl)amino)methyl)pyridin-2-yl)methyl)amino)-2-methyl-4-oxoquinazolin-3(4H)-yl)piperidine-2,6-dione]	–
4.82 ± 2.36	43.5 ± 17.9	Cc1nc2cccc(NCc3ccc(CN4CCCCCC4)cc3)c2c(=O)n1C1CCC(=O)NC1=O (stereo not drawn) [SIAIS313087, 3-(5-((4-(azepan-1-ylmethyl)benzyl)amino)-2-methyl-4-oxoquinazolin-3(4H)-yl)piperidine-2,6-dione]	inhibition of the level of TNF-α (in words) (TNF-α): better inhibitory activities than CC-122
